# Laboratory results reported in patent US20120004193A1, “PROCESS FOR PRODUCTION OF ORALLY INGESTIBLE COMPOSITION CONTAINING ARABINOFURANOSYL VITEXIN, AND USE OF THE COMPOSITION” (Fuji Sangyo Co., Ltd., priority 2009, published 2012).
# System: ICR mice
# Assay: Sedative and sleep-inducing activities in thiopental sodium-treated mice
# Format: in vivo, mouse
# Conditions: 100 mg/kg body weight oral, thiopental sodium 30 mg/kg i.p. 45 minutes later, measured over 40 minutes, compared with negative control group, p<0.01 (Dunnet)
# Description: The arabinofuranosyl vitexin-isolated product obtained in the above-mentioned procedure (1) was used to study sedative and sleep-inducing effects. A sample was orally administered to six ICR mice (body weight: 40 to 45 g).
# As the sample, the ‘arabinofuranosyl vitexin (100 mg/kg body weight)’ dissolved in physiological saline was orally administered. It should be noted that ‘diazepam (2 mg/kg body weight)’ having a sleep-inducing effect was dissolved in physiological saline and orally administered as a positive control, and ‘physiological saline alone’ was orally administered as a negative control.
# Then, 45 minutes after the oral administration of the sample, thiopental sodium (30 mg/kg body weight) […] was administered intraperitoneally, and the mice were individually placed in mouse cages (17 cm×27 cm).
# In a period from the start of the administration of thiopental sodium to 40 minutes later, a total time when a mouse stopped moving for one or more minutes and got in a sleep state was measured to evaluate the sedative and sleep-inducing effects.
# It should be noted that the symbol in FIG. 2 represents that there is a significant difference compared with the negative control group at a risk rate of less than 1% (p<0.01) by a Dunnet multiple comparison assay.
smiles,measurement,value
"O=c1cc(-c2ccc(O)cc2)oc2c(C3OC(CO)C(O)C(O)C3OC3OC(CO)C(O)C3O)c(O)cc(O)c12 [arabinofuranosyl vitexin, 2″-O-α-D-arabinofuranosyl vitexin]",sedation and sleeping times (total time when a mouse stopped moving for one or more minutes and got in a sleep state),extended significantly
